# According to patent EP4813992A1, “POLYARYL DERIVATIVE AND USE THEREOF” (Hangzhou HealZen Therapeutics Co., Ltd., priority 2023, dated 2025):
# Key:
# [1] = biological target: T1, HPK1 kinase (Homo sapiens, UniProt Q92918); assay: Lantha screen assay, inhibitory effect on HPK1 kinase; format: biochemical; conditions: initial compound concentration 1 µM
# Method: The Lantha screen assay is used to evaluate the inhibitory effect of the compounds on HPK1 kinase. • a) Kinase buffer: 50 mM HEPES (pH 7.5), 10 mM MgCl2, 4 mM DTT, 0.01% Tween-20, 0.01% BSA. • b) Compound Preparation: The compound is diluted with DMSO, and the initial detection concentration of the compound is 1 µM and is diluted to the corresponding concentration. • c) Kinase response and termination: A kinase solution is prepared by adding kinase buffer, the kinase solution and the compound are added to the test plate to be incubated at room temperature for 10 minutes. Fluorescein-PKC and ATP are added to the kinase buffer to form a substrate solution, and 5 µl of the substrate solution is added to the test plate to start the reaction to be incubated at room temperature for 90 minutes; then, 10 µl of a mixture of antibody and EDTA is added to terminate the reaction to be incubated at room temperature for 60 minutes. • d) The date is read by Envision instrument to plot a curve with the Log concentration of the inhibitor as the X-axis and the inhibition rate as the Y-axis, and then the formula Y=Bottom + (Top-Bottom)/(1+(IC50/X)^HillSlope) is used to obtain IC50. Table 1 Inhibitory activity the compounds of the invention on HPK1 kinase
# [2] = biological target: T1, HPK1 kinase; assay: Activity of degrading HPK1 in Jurkat cells (Western blot, 24 h); format: cell-based; set-up: endogenous in cells; host or cells: Jurkat; conditions: HPK1 protein degradation
# Method: The adjusted samples are added to 5*loading buffer, boiled at 100°C for 10 minutes, and then the samples are loaded after the temperature is returned to room temperature. • 4) Detection of samples: Electrophoresis is performed using 10% SDS-PAGE with a sample loading volume of 8 µL/well. After the membrane transfer is completed, the samples are blocked with 5% BSA at room temperature for 1 h. After the residual blocking solution is washed away with TBST, HPK1 and GAPDH antibodies are added for incubation overnight at 4°C. Washing is performed 3 more times with TBST on a shaker, 10 minutes each time. After washing is completed, the secondary antibody is added for incubation at room temperature for 1 hour; then, washing is performed 3 more times with TBST on a shaker, 10 minutes each time; finally, ECL exposure solution is used to develop and image the bands to detect changes in HPK1 protein.
# [3] = tested on: HPK1/GLK; assay: Selectivity of degrading HPK1/GLK in Jurkat cells (Western blot, 24 h); format: cell-based; conditions: HPK1/GLK Fold = DC50 (HPK1) / DC50 (GLK)
# Method: • 1) Cell plating: Cells are resuscitated, Jurkat cell lines in good growth condition are selected, and cells in the logarithmic growth phase are collected and counted; cell suspensions are seeded into 12 or 24-well plates (20W/well) and incubated overnight at 37°C in a 5% CO2 incubator. • 2) Preparation of compounds to be tested: The compounds to be tested are serially diluted with DMSO according to the experimental requirements and added to the corresponding cell wells, to be incubated at 37°C in a 5% CO2 incubator for 24 h. • 3) Preparation of samples: After the reaction of the compound to be tested is completed, the cells are collected in 1.5 mL EP tubes, and centrifuged at 1500 rpm for 5 min; after the supernatant is discarded, the cells are washed once with PBS, and the BCA protein is quantified and the concentration is adjusted. The adjusted samples are added to 5*loading buffer, boiled at 100°C for 10 minutes, and then the samples are loaded after the temperature is returned to room temperature. • 4) Detection of samples: Electrophoresis is performed using 10% SDS-PAGE with a sample loading volume of 10 µL/well. After the membrane transfer is completed, the samples are blocked with 5% skim milk at room temperature for 1 h. After the residual blocking solution is washed away with TBST, HPK1 and GLK antibodies are added for incubation overnight at 4°C. Washing is performed 3 more times with TBST on a shaker, 5 minutes each time. After washing is completed, the secondary antibody is added for incubation at room temperature in a shaker for 1 hour; then, washing is performed 3 more times with TBST on a shaker, 5 minutes each time; finally, the membrane is soaked in TBST and then subjected to chemiluminescence development. • 5) Data Processing: After the PVDF membrane is developed, the data are exported and plotted using Imang J, and the gray values of the protein bands are analyzed using Image J software; the DC50 curve is fitted using Graphpad Prism 9 software to obtain the results of the selectivity of the compound in degrading HPK1/GLK: HPK1/GLK Fold = DC50 (HPK1) / DC50 (GLK) . Table 3 Selectivity of the compounds of the invention in degrading HPK1/GLK
# T1 sequence (Q92918 whole entry): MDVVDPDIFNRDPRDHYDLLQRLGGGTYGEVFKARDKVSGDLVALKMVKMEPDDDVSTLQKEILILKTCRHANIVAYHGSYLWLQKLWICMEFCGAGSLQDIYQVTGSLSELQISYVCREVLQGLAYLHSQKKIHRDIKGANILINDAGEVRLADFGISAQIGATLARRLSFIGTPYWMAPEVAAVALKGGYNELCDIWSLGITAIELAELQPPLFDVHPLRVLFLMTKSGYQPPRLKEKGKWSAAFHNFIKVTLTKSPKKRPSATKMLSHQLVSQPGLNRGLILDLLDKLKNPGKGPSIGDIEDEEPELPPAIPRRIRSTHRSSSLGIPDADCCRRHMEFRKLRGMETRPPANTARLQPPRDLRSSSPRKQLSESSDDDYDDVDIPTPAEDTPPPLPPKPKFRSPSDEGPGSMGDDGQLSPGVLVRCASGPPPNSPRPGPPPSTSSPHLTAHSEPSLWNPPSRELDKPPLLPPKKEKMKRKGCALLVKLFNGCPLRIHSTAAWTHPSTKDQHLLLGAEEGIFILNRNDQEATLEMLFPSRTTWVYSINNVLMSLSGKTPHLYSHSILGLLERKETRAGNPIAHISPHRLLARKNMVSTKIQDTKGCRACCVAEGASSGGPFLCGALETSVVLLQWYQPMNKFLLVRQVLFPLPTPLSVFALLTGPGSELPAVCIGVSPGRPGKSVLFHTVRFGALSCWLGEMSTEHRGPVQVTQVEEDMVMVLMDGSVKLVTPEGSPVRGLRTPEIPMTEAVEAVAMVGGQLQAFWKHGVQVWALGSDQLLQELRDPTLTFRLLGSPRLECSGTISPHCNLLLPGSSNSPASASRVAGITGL
IC50 [1] [µM],DC50 ([2]; class symbols) [µM],DC50 ([2]; numeric values) [µM],Structure (SMILES),HPK1/GLK Fold [3]
< 0.01,< 0.01,,Cc1cc(-c2cnc3[nH]cc(-c4ccc(C(=O)N(C)C)cc4)c3n2)cc(C)c1C1=CCN(C2CC3(C2)CN(c2ccc(N4CCC(=O)NC4=O)c(F)c2)C3)CC1 [compound 119],
< 0.01,< 0.01,,Cc1cc(-c2cnc3[nH]cc(-c4cncs4)c3n2)cc(C)c1C1=CCN(CC2CN(c3ccc(N4CCC(=O)NC4=O)c(F)c3)C2)CC1 [compound 153],
< 0.01,< 0.01,,Cc1cc(N2CC(CN3CC=C(c4c(C)cc(-c5cnc6[nH]cc(-c7ccc(C(=O)N(C)C)cc7F)c6n5)cc4C)CC3)C2)ccc1N1CCC(=O)NC1=O [compound 140],
< 0.01,< 0.01,,Cc1cc(-c2cnc3[nH]cc(-c4ccc(C(=O)N(C)C)cc4)c3n2)cc(C)c1C1=CCN(CC2CN(c3ccc(N4CCC(=O)NC4=O)cc3)C2)CC1 [compound 008],
< 0.01,< 0.01,,Cc1cc(-c2cnc3[nH]cc(-c4cn(CC(F)(F)F)nn4)c3n2)cc(C)c1C1=CCN(CC2CN(c3ccc(N4CCC(=O)NC4=O)c(F)c3)C2)CC1 [compound 148],
< 0.01,< 0.01,,Cc1cc(-c2cnc3[nH]cc(-c4cnc5ccc(C#N)cn45)c3n2)cc(C)c1C1=CCN(CC2CN(c3ccc(N4CCC(=O)NC4=O)c(F)c3)C2)CC1 [compound 166],
< 0.01,,0.0223,CCN1CCC(n2cc(-c3c[nH]c4ncc(-c5cc(C)c(C6=CCN(CC7CN(c8ccc(N9CCC(=O)NC9=O)c(F)c8)C7)CC6)c(C)c5)nc34)cn2)CC1 [compound 108],
< 0.01,< 0.01,,Cc1cc(-c2cnc3[nH]cc(-n4cc(C(F)F)cn4)c3n2)cc(C)c1C1=CCN(CC2CN(c3ccc(N4CCC(=O)NC4=O)c(F)c3)C2)CC1 [compound 159],
< 0.01,< 0.01,,Cc1cc(-c2cnc3[nH]cc(-c4cnsc4)c3n2)cc(C)c1C1=CCN(CC2CN(c3ccc(N4CCC(=O)NC4=O)c(F)c3)C2)CC1 [compound 154],
< 0.01,< 0.01,,Cc1cc(-c2cnc3[nH]cc(-n4ncc5c4CCC5)c3n2)cc(C)c1C1=CCN(CC2CN(c3ccc(N4CCC(=O)NC4=O)c(F)c3)C2)CC1 [compound 164],
< 0.01,< 0.01,,Cc1cc(-c2cnc3[nH]cc(-c4csc(CO)c4)c3n2)cc(C)c1C1=CCN(CC2CN(c3ccc(N4CCC(=O)NC4=O)c(F)c3)C2)CC1 [compound 151],
< 0.01,< 0.01,,Cc1cc(N2CC(CN3CC=C(c4c(C)cc(-c5cnc6[nH]cc(-c7cnc8c(c7)N(C)CCO8)c6n5)cc4C)CC3)C2)ccc1N1CCC(=O)NC1=O [compound 132],
< 0.01,< 0.01,,Cc1cnn(-c2c[nH]c3ncc(-c4cc(C)c(C5=CCN(CC6CN(c7ccc(N8CCC(=O)NC8=O)c(F)c7)C6)CC5)c(C)c4)nc23)c1 [compound 158],
< 0.01,< 0.01,,Cc1cc(-c2cnc3[nH]cc(-n4cc(N5CCOCC5)cn4)c3n2)cc(C)c1C1=CCN(CC2CN(c3ccc(N4CCC(=O)NC4=O)c(F)c3)C2)CC1 [compound 157],
< 0.01,< 0.01,,Cc1cc(-c2cnc3[nH]cc(-n4cc(C#N)cn4)c3n2)cc(C)c1C1=CCN(CC2CN(c3ccc(N4CCC(=O)NC4=O)c(F)c3)C2)CC1 [compound 161],
< 0.01,< 0.01,,Cc1cc(-c2cnc3[nH]cc(-c4ccc(C(=O)N(C)C)cc4)c3n2)cc(C)c1C1=CCN(C2CC3(CCN(c4ccc(N5CCC(=O)NC5=O)c(F)c4)C3)C2)CC1 (centres unmarked) [compound 117],

IC50 [1] [µM],DC50 ([2]; class symbols) [µM],DC50 ([2]; numeric values) [µM],Structure (SMILES),HPK1/GLK Fold [3]
< 0.01,< 0.01,,Cc1cc(N2CC(CN3CC=C(c4c(C)cc(-c5cnc6[nH]cc(-c7ccc(C(=O)N(C)C)cc7)c6c5)cc4C)CC3)C2)ccc1N1CCC(=O)NC1=O [compound 013],
< 0.01,< 0.01,,CCc1nc(C)c(-c2c[nH]c3ncc(-c4cc(C)c(C5=CCN(CC6CN(c7ccc(N8CCC(=O)NC8=O)c(F)c7)C6)CC5)c(C)c4)nc23)s1 [compound 152],
< 0.01,< 0.01,,Cc1cc(-c2cnc3[nH]cc(-c4ccc(C(=O)N(C)C)cc4)c3c2)cc(C)c1C1=CCN(CC2CN(c3ccc(N4CCC(=O)NC4=O)c(Cl)c3)C2)CC1 [compound 142],
< 0.01,< 0.01,,Cc1cc(N2CC(CN3CC=C(c4c(C)cc(-c5cnc6[nH]cc(-c7cnc8ccn(C)c8c7)c6c5)cc4C)CC3)C2)ccc1N1CCC(=O)NC1=O [compound 111],
< 0.01,< 0.01,,Cc1cc(-c2cnc3[nH]cc(-c4cc(Cl)sc4Cl)c3n2)cc(C)c1C1=CCN(CC2CN(c3ccc(N4CCC(=O)NC4=O)c(F)c3)C2)CC1 [compound 149],
< 0.01,< 0.01,,Cc1cc(N2CC(CN3CC=C(c4ccc(-c5cnc6[nH]cc(-c7ccc(C(=O)N(C)C)cc7)c6n5)cc4CN(C)C)CC3)C2)ccc1N1CCC(=O)NC1=O [compound 139],
< 0.01,< 0.01,,Cc1cc(-c2cnc3[nH]cc(-c4c(C)noc4C)c3n2)cc(C)c1C1=CCN(CC2CN(c3ccc(N4CCC(=O)NC4=O)c(F)c3)C2)CC1 [compound 155],
< 0.01,< 0.01,,Cc1cc(-c2cnc3[nH]cc(-c4ccc(C(=O)N(C)C)cc4)c3n2)cc(C)c1C1=CCN(CC2CN(c3ccc(C4CCC(=O)NC4=O)c(F)c3)C2)CC1 (centres unmarked) [compound 003],
< 0.01,< 0.01,,Cc1cc(-c2c[nH]c3ncc(-c4cc(C)c(C5=CCN(CC6CN(c7ccc(C(=O)NC8CCC(=O)NC8=O)cc7)C6)CC5)c(C)c4)nc23)ccc1C(=O)N(C)C (centres unmarked) [compound 028],
< 0.01,< 0.01,,Cc1cc(-c2cnc3[nH]cc(-c4cnco4)c3n2)cc(C)c1C1=CCN(CC2CN(c3ccc(N4CCC(=O)NC4=O)c(F)c3)C2)CC1 [compound 169],
< 0.01,< 0.01,,Cc1ccn2c(-c3c[nH]c4ncc(-c5cc(C)c(C6=CCN(CC7CN(c8ccc(N9CCC(=O)NC9=O)c(F)c8)C7)CC6)c(C)c5)nc34)cnc2c1 [compound 168],
< 0.01,< 0.01,,Cc1nsc(-c2c[nH]c3ncc(-c4cc(C)c(C5=CCN(CC6CN(c7ccc(N8CCC(=O)NC8=O)c(F)c7)C6)CC5)c(C)c4)nc23)n1 [compound 171],
< 0.01,,,Cc1cc(N2CC(CN3CC=C(c4c(C)cc(-c5cnc(N)c(Oc6cnn(C7CCN(C)CC7)c6)n5)cc4C)CC3)C2)ccc1N1CCC(=O)NC1=O [compound 092],
< 0.01,,,Cc1cc(C(=O)N2CC(N3CC=C(c4c(C)cc(-c5cnc6[nH]cc(-c7ccc(C(=O)N(C)C)cc7)c6n5)cc4C)CC3)C2)ccc1C1CCC(=O)NC1=O (centres unmarked) [compound 010],
< 0.01,,,COc1ccc(C(=O)N2CCC(CN3CC=C(c4c(C)cc(-c5cnc6scc(-c7ccc(C(=O)N(C)C)cc7)c6n5)cc4C)CC3)C2)cc1N1CCC(=O)NC1=O (centres unmarked) [compound 082],

Structure (SMILES),IC50 [1] [µM],DC50 ([2]; class symbols) [µM],DC50 ([2]; numeric values) [µM],HPK1/GLK Fold [3]
Cc1cc(-c2c[nH]c3ncc(-c4cc(C)c(C5=CCN(CC6CN(c7ccc(N8CCC(=O)NC8=O)c(F)c7)C6)CC5)c(C)c4)nc23)ccc1C(=O)N(C)C [compound 146],< 0.01,,,++++ (1000≤Fold)
Cc1cc(-c2cnc3[nH]cc(-c4ccc(C(=O)N(C)C)cc4)c3n2)cc(C)c1C1=CCN(CC2CN(c3cc(F)c(N4CCC(=O)NC4=O)c(F)c3)C2)CC1 [compound 141],,< 0.01,,
